pEC50: −log10 of the molar value. Read-outs that look alike come from different tables or passages of the source.
Test system: HCV genotype 1b replicon in Huh 7 cells
Experiment: HCV replicon assay (1b_Huh-Luc/Neo-ET cell line, luciferase readout)
Assay type: cell-based
Conditions: Hepatitis C virus, read-out: Inhibition of HCV genotype 1b
How it was run: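 Replicon level was read as luciferase signal after 72 h compound exposure, triplicate wells, starting the day after cells were plated. Cell line: 1b_Huh-Luc/Neo-ET. Values normalised to control as percent, and EC50 fitted with a variable-slope sigmoid; determinations repeated.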

[1] = Table 1, genotype 1b replicon, Huh 7 cells, 72 h, luciferase
[2] = Table 2, genotype 1b replicon, Huh 7 cells, 72 h, luciferase

Row | SMILES | pEC50 [1] | further results
1 | COC(=O)N[C@H](C(=O)N1CCC[C@H]1c1ncc(-c2ccc3nc(-c4ccc(-c5cnc([C@@H]6CCCN6C(=O)[C@H](NC(=O)OC)c6ccccc6)[nH]5)cc4)ccc3c2)[nH]1)[C@@H](C)O [compound 490] |  | pEC50 (Huh-7, HCV 1b replicon): > 9.00
2 | CNC(=O)N[C@@H](C(=O)N1CCC[C@H]1c1nc(-c2ccc3cc(-c4ccc(-c5cnc([C@@H]6CCCN6C(=O)[C@@H](NC(=O)OC)C(C)C)[nH]5)cc4)ccc3c2)c[nH]1)c1ccccc1 [14s] |  | pEC50 (Huh-7, 72 h): > 9.00
3 | COC(=O)N[C@H](C(=O)N1CCC[C@H]1c1nc2ccc(-c3ccc4cc(-c5cnc([C@@H]6CCCN6C(=O)[C@@H](c6ccccc6)N(C)C)[nH]5)ccc4c3)cc2[nH]1)C(C)C [compound 182] | > 9.00 | 
4 | COC(=O)N[C@H](C(=O)N1CCOC[C@H]1c1ncc(-c2ccc3cc(-c4ccc(-c5cnc([C@@H]6COCCN6C(=O)[C@H](NC(=O)OC)c6ccccc6)[nH]5)cc4)ccc3c2)[nH]1)C(C)C [compound 168] | > 9.00 | 
5 | COC(=O)N[C@H](C(=O)N1CCC[C@H]1CNC(=O)c1ccc(-c2ccc3cc(-c4cnc([C@@H]5CCCN5C(=O)[C@@H](NC(=O)OC)[C@@H](C)OC)[nH]4)ccc3c2)cc1)[C@@H](C)OC [compound 572] |  | pEC50 (Huh-7, HCV 1b replicon): > 9.00
6 | COC(=O)N[C@H](C(=O)N1CCC[C@H]1c1ncc(-c2ccc(-c3ccc4cc(-c5c[nH]c([C@@H]6CCCN6C(=O)[C@H](NC(=O)OC)c6ccccc6)n5)cnc4c3)cc2)[nH]1)C(C)C [compound 45] | > 9.00 | 
7 | COC(=O)N[C@H](C(=O)N1CCC[C@H]1c1nc2c([nH]1)-c1ccc(-c3ccc4cc(-c5cnc([C@@H]6CCCN6C(=O)[C@H](NC(=O)OC)c6ccccc6)[nH]5)ccc4n3)cc1CCC2)C(C)C [compound 539] |  | pEC50 (Huh-7, HCV 1b replicon): > 9.00
8 | COC(=O)N[C@H](C(=O)N1CCC[C@H]1c1nc2ccc(-c3ccc4cc(-c5ccc6nc([C@@H]7CCCN7C(=O)[C@H](NC(=O)OC)c7ccccc7)[nH]c6c5)ccc4c3)cc2[nH]1)C(C)C [compound 283] | > 9.00 | 
9 | COC(=O)N[C@H](C(=O)N1CCC[C@H]1c1ncc(-c2ccc3cc(-c4ccc5nc([C@@H]6CCCN6C(=O)[C@@H](NC(=O)OC)C6CCOCC6)[nH]c5c4)ncc3c2)[nH]1)C(C)C [compound 219] | > 9.00 | 
10 | COC(=O)N[C@H](C(=O)N1CCC[C@H]1c1nc2ccc(-c3ccc4cc(-c5cnc([C@@H]6CCCN6C(=O)[C@@H](NC(=O)OC)[C@@H](C)OC)[nH]5)ccc4c3)nc2[nH]1)C1CCCC1 [compound 533] |  | pEC50 (Huh-7, HCV 1b replicon): > 9.00
11 | COC(=O)N[C@H](C(=O)N1CCC[C@H]1c1nc(-c2cnc3cc(-c4ccc(-c5cnc([C@@H]6CCCN6C(=O)[C@@H](NC(=O)OC)C(C)C)[nH]5)cc4F)ccc3c2)c[nH]1)C(C)C [compound 57] | > 9.00 | 
12 | COC(=O)N[C@H](C(=O)N1CCC[C@H]1c1nc(-c2ccc3nc(-c4ccc(-c5cnc([C@@H]6CCCN6C(=O)[C@H](NC(=O)OC)c6ccccc6)[nH]5)cc4)ccc3c2)c[nH]1)C(C)C [compound 26] | > 9.00 | 
13 | COC(=O)N[C@H](C(=O)N1CCC[C@H]1C(=O)N[C@@H](C)c1ccc(-c2ccc3cc(-c4cnc([C@@H]5CCCN5C(=O)[C@@H](NC(=O)OC)[C@@H](C)OC)[nH]4)ccc3c2)cc1)[C@@H](C)OC [compound 558] |  | pEC50 (Huh-7, HCV 1b replicon): > 9.00
14 | COC(=O)N[C@H](C(=O)N1CCC[C@H]1c1nc(-c2ccc3cc(-c4ccc(-c5cnc([C@@H]6CCCN6C(=O)[C@H](NC(=O)OC)c6ccsc6)[nH]5)cc4)ccc3c2)c[nH]1)C1CCOCC1 [compound 110] | > 9.00 | 
15 | COC(=O)N[C@H](C(=O)N1CCC[C@H]1c1ncc(-c2ccc(-c3ccc4cc(-c5cnc([C@@H]6CCCN6C(=O)[C@H](NC(=O)OC)C6C=CCC=C6)[nH]5)ccc4n3)c(F)c2)[nH]1)C1CCOCC1 [compound 163] | > 9.00 | 
16 | C=CC[C@H](NC(=O)OC)C(=O)N1CCC[C@H]1c1ncc(-c2ccc3nc(-c4ccc(-c5cnc([C@@H]6CCCN6C(=O)[C@@H](NC(=O)OC)C6CCOCC6)[nH]5)cc4F)ccc3c2)[nH]1 [compound 160] | > 9.00 | 
17 | COC(=O)N[C@H](C(=O)N1CCC[C@H]1c1ncc(-c2ccc3cc(-c4ccc5nc([C@@H]6CCCN6C(=O)[C@H](NC(=O)OC)c6ccccc6)[nH]c5c4)ccc3c2)[nH]1)C(C)C [compound 181] | > 9.00 | 
18 | COC(=O)N[C@H](C(=O)N1CCC[C@H]1c1nc2ccc(-c3ccc4nc(-c5ccc6nc([C@@H]7CCCN7C(=O)[C@@H](NC(=O)OC)C(C)C)[nH]c6c5)ccc4c3)cc2[nH]1)C(C)C [compound 280] | > 9.00 | 
19 | COC(=O)N[C@H](C(=O)N1CCC[C@H]1c1nc(-c2ccc3[nH]c(-c4ccc(-c5cnc([C@@H]6CCCN6C(=O)[C@@H](NC(=O)OC)C(C)C)[nH]5)cc4)cc(=O)c3c2)c[nH]1)C(C)C [compound 76] | > 9.00 | 
20 | COC(=O)N[C@H](C(=O)N1CCC[C@H]1c1ncc(-c2ccc(-c3cc4ccc(-c5cnc([C@@H]6CCCN6C(=O)[C@@H](NC(=O)OC)C6CCOCC6)[nH]5)cc4cn3)c(F)c2)[nH]1)C(C)C [compound 166] | > 9.00 | 

Row | SMILES | pEC50 [1] | further results
21 | COC(=O)N[C@H](C(=O)N1CCC[C@H]1c1ncc(-c2ccc(-c3ccc4cc(-c5cnc([C@@H]6COCCN6C(=O)[C@@H](NC(=O)OC)C(C)C)[nH]5)ccc4c3)cc2)[nH]1)C(C)C [compound 140] | > 9.00 | 
22 | COC(=O)N[C@H](C(=O)N1CCC[C@H]1c1nc(-c2ccc3cc(-c4ccc(-c5cnc([C@@H]6CCCN6C(=O)[C@H](NC(=O)OC)c6ccccc6)[nH]5)cc4)ccc3c2)c[nH]1)C1CCOCC1 [compound 99] | > 9.00 | 
23 | COC(=O)N[C@H](C(=O)N1CCC[C@H]1c1ncc(-c2ccc3cc(-c4cnc5nc([C@@H]6CCCN6C(=O)[C@@H](NC(=O)OC)[C@@H](C)OC)[nH]c5c4)ccc3c2)[nH]1)[C@@H](C)OC [compound 519] |  | pEC50 (Huh-7, HCV 1b replicon): > 9.00
24 | CC[C@H](C)[C@H](NC(=O)OC)C(=O)N1CCC[C@H]1c1ncc(-c2ccc(-c3ccc4cc(-c5cnc([C@@H]6CCCN6C(=O)[C@@H](NC(=O)OC)[C@@H](C)OC)[nH]5)ccc4c3)cc2)[nH]1 [compound 503] |  | pEC50 (Huh-7, HCV 1b replicon): > 9.00
25 | COC(=O)N[C@H](C(=O)N1CCC[C@H]1c1nc2ccc(-c3ccc4cc(-c5cnc([C@@H]6CCCN6C(=O)[C@H](NC(=O)OC)c6ccccc6)[nH]5)cnc4c3)cc2[nH]1)C(C)C [compound 195] | > 9.00 | 
26 | CC[C@@H](C)[C@H](NC(=O)OC)C(=O)N1CCC[C@H]1c1ncc(-c2ccc3cc(-c4ccc5nc([C@@H]6COCCN6C(=O)[C@@H](NC(=O)OC)[C@H](C)CC)[nH]c5c4)ccc3c2)[nH]1 [compound 352] |  | pEC50 [2]: > 9.00
27 | COC(=O)N[C@H](C(=O)N1CCC[C@H]1C(=O)Nc1ccc(-c2ccc3cc(-c4cnc([C@@H]5CCCN5C(=O)[C@@H](NC(=O)OC)[C@@H](C)OC)[nH]4)ccc3c2)cc1)[C@@H](C)OC [compound 578] |  | pEC50 (Huh-7, HCV 1b replicon): > 9.00
28 | COC(=O)N[C@H](C(=O)N1CCC[C@H]1c1nc(-c2ccc3cc(-c4ccc(-c5cnc([C@@H]6CCCN6C(=O)[C@H](NC(=O)OC)c6ccccc6)[nH]5)cc4)ccc3c2)c[nH]1)C(C)C [compound 8] | > 9.00 | 
29 | [2H]C([2H])([2H])C([2H])(C([2H])([2H])[2H])[C@@]([2H])(NC(=O)OC)C(=O)N1CCC[C@H]1c1ncc(-c2ccc3nc(-c4ccc(-c5cnc([C@@H]6CCCN6C(=O)[C@@H](NC(=O)OC)C(C)C)[nH]5)cc4F)ccc3c2)[nH]1 [compound 157] | > 9.00 | 
30 | COC(=O)N[C@H](C(=O)N1CCC[C@H]1c1ncc(-c2ccc3nc(-c4ccc(-c5cnc([C@@H]6CN(C(C)=O)CCN6C(=O)[C@@H](NC(=O)OC)C(C)C)[nH]5)cc4)ccc3c2)[nH]1)C(C)C [compound 493] |  | pEC50 (Huh-7, HCV 1b replicon): > 9.00
31 | COC(=O)N[C@@H](C(=O)N1CCC[C@H]1c1ncc(-c2ccc3nc(-c4ccc5nc([C@@H]6CCCN6C(=O)[C@H](NC(=O)OC)c6ccccc6)[nH]c5c4)ccc3c2)[nH]1)c1ccccc1 [compound 507] |  | pEC50 (Huh-7, HCV 1b replicon): > 9.00
32 | COC(=O)N[C@H](C(=O)N1CCC[C@H]1c1nc2ccc(-c3ccc4cc(-c5cnc([C@@H]6CCCN6C(=O)[C@H](NC(=O)OC)c6ccccc6)[nH]5)ccc4c3)cc2[nH]1)C(C)C [compound 179] | > 9.00 | 
33 | COC(=O)N[C@H](C(=O)N1CCC[C@H]1c1ncc(-c2ccc3cc(-c4ccc5nc([C@@H]6CCCN6C(=O)[C@@H](NC(=O)OC)C6CCOCC6)[nH]c5c4)ccc3c2)[nH]1)C(C)C [compound 189] | > 9.00 | 
34 | COC(=O)N[C@H](C(=O)N1CCC[C@H]1c1nc(-c2ccc3nc(-c4ccc(-c5cnc([C@@H]6CCCN6C(=O)[C@@H](NC(=O)OC)C(C)C)[nH]5)cc4)cnc3c2)c[nH]1)C(C)C [compound 11] | > 9.00 | 
35 | COC(=O)N[C@H](C(=O)N1CCC[C@H]1c1ncc(-c2ccc(-c3ccc4cc(-c5c[nH]c([C@@H]6CCCN6C(=O)[C@@H](NC(=O)OC)C6CCOCC6)n5)cnc4c3)cn2)[nH]1)C(C)C [compound 95] | > 9.00 | 
36 | COC(=O)N[C@H](C(=O)N1CCC[C@H]1c1ncc(-c2cccc3c(-c4ccc5nc([C@@H]6CCCN6C(=O)[C@@H](NC(=O)OC)C(C)C)[nH]c5c4)cccc23)[nH]1)C(C)C [compound 207] | > 9.00 | 
37 | COC(=O)N[C@H](C(=O)N1CCC[C@H]1c1ncc(-c2ccc3cc(-c4ccc(-c5cnc([C@@H]6CCCN6C(=O)[C@H](NC(=O)OC)c6ccccc6)[nH]5)nn4)ccc3c2)[nH]1)C(C)C [compound 461] |  | pEC50 (Huh-7, HCV 1b replicon): > 9.00
38 | COC[C@H](NC(=O)OC)C(=O)N1CCC[C@H]1c1ncc(-c2ccc3cc(-c4ccc(-c5cnc([C@@H]6CCCN6C(=O)[C@H](NC(=O)OC)c6ccccc6)[nH]5)cc4)ccc3c2)[nH]1 [compound 316] |  | pEC50 [2]: > 9.00
39 | COC(=O)N[C@@H](C(=O)N1CCC[C@H]1c1ncc(-c2ccc(-c3nc4cc(-c5cnc([C@@H]6CCCN6C(=O)[C@H](NC(=O)OC)c6ccccc6)[nH]5)ccc4o3)cc2)[nH]1)c1ccccc1 [compound 237] | > 9.00 | 
40 | COC(=O)N[C@H](C(=O)N1CCC[C@H]1c1ncc(-c2ccc(-c3ccc4cc(-c5c[nH]c([C@@H]6CCCN6C(=O)[C@H](NC(=O)OC6CCOCC6)c6ccccc6)n5)cnc4c3)nc2)[nH]1)C(C)C [compound 81] | > 9.00 | 
